Data: patent US20250368646A1, “TRICYCLIC FUSED WRN INHIBITORS” (Nimbus Wadjet, Inc., priority 2024, published 2025)
pEC50, pIC50: −log10 of the molar value.

Columns and labels:
[1] = system: p21 induction in HCT 116 cells; test: p21 induction in cells (in-cell western, p21/GAPDH ratio); assay type: cell-based; conditions: Homo sapiens; HCT 116 colon carcinoma cell line, 24 h compound incubation; percent activation vs internal reference WRN inhibitor; read-out: P21_EC50
Protocol: The colon carcinoma cell line HCT 116 was obtained from ATCC and cultured in growth medium consisting of Mccoy's 5A Medium (Gibco 16600108) supplemented with […] (Transgene FS201-02) and 100 units/mL penicillin-streptomycin (Gibco 15140122) and maintained at 37° C. under […]. On the day of seeding, 2,000 cells in 30 μL of culture media were plated per well to Poly-D-Lysine 384 Well Black Clear Plates (Biocoat 356663) and incubated overnight at 37° C. under 5% CO2. The following day, compounds were serially diluted in DMSO for a total of 11 test concentrations. The typical starting concentration of cpds was 10 μM with 2-fold dilutions. Next, 150 nL of diluted compound was added in duplicate to the assay plate, using an Echo 655 (Labcyte). The plate was centrifuged at 500 RPM for 1 min and then incubated at 37° C. under 5% CO2 for 24 h. After 24 h, medium was removed, and cells were fixed by adding 40 µL of 4% paraformaldehyde solution to each well and incubated for 20 min at room temperature. The plate was then washed 4 times with 100 μL per well of wash buffer (PBS with 0.1% Tween-20) using a microplate washer. Next, 30 μL of ice-cold methanol was added to each well and the plate was incubated at −20° C. for 10 min. The plate was washed 4 times with 100 μL per well of wash buffer by a microplate washer, then 30 μL per well of blocking buffer (Intercept PBS blocking buffer (LI-COR 927-70001) with 0.05% Tween-20) was added and the plate was incubated at room temperature with shaking for 2 h. Next, to each test well, 20 μL of primary antibody solution (p21 Waf1/CIP (12D1) Rabbit mAb (Cell Signaling Technologies 2947) diluted 1:1000 and GAPDH (D4C6R) Mouse mAb (Cell Signaling Technologies 97166) diluted 1:2000 in blocking buffer) was added and the plate was placed at 4° C., overnight. The following day, the plate was washed 5 times with 100 μL per well of wash buffer using a microplate washer for 5 min. 20 μL per well of secondary antibody (IRDye 680CW Goat anti-Mouse IgG (H+L) (LI-COR 926-68070) diluted 1: 2000 in Blocking Buffer and IRDye 800CW Goat anti-Rabbit IgG (H+L) (LI-COR 926-32211) diluted 1: 2000 in Blocking Buffer) was then added and the plate was stored for 2 h in the dark at room temperature with shaking. The plate was then washed 4 times with 100 μL per well of wash buffer again using a microplate washer. Finally, the p21 signal and the GAPDH signal were quantified using a LI-COR Odyssey CLx Imager machine reading at 800 nm and 700 nm, respectively. Each plate contained DMSO control (low control) and an internal reference WRN inhibitor (high control) respectively. For quantitation, the 800 nm/700 nm ratio was calculated for each well to give fold p21 induction and then percent activation for each compound well was calculated as follows (100×(ratio cpd well-ratio low control)/(ratio high control−ratio low control)). EC50 values for each compound were generated after non-linear regression curve fitting using commercially available software.

[2] = target: T1, human Werner helicase (WRN-BV08, amino acids 517-1235 with L1074F point mutation) (Homo sapiens, UniProt Q14191, L1074F); test: ADP-Glo WRN helicase ATPase inhibition assay; assay type: biochemical; conditions: 0.15 nM WRN, 5 μM ATP, 0.1 nM DNA duplex; 15 minutes preincubation, 60 minutes at 25° C.; read-out: ADP-Glo_hWRN_IC50
T1 construct: [pFastBac1-WRN-(517-1235 L1074F)-TEV-8His]; 8xHis (C, cleaved yes); TEV cleavage site (ENLYFQG) (C); made in house; host or cells: Sf9 insect cells (baculovirus, pFastBac)
T1 sequence (Q14191 with tags, fused parts or gaps L1074F): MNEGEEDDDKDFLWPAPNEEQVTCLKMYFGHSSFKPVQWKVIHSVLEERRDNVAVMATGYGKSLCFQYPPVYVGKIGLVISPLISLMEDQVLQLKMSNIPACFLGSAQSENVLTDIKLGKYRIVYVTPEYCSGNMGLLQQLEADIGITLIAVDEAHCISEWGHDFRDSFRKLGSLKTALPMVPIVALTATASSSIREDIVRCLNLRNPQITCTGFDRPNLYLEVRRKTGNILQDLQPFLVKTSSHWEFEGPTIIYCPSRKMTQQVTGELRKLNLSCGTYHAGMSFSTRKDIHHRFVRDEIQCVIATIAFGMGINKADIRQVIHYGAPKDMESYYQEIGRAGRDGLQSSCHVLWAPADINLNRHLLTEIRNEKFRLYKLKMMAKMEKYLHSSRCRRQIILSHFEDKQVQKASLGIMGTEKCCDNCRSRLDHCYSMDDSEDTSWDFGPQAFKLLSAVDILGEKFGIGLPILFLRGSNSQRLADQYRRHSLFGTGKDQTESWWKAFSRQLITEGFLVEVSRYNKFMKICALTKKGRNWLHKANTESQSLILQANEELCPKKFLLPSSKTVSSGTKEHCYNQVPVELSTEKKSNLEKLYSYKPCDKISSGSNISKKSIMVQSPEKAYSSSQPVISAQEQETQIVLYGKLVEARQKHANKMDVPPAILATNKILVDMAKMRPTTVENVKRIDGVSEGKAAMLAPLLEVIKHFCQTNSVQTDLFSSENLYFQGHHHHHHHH
Text: Bovine skin gelatin (BSG), dimethyl sulfoxide (DMSO), Pluronic F-127 and tris(2-carboxyethyl)phosphine hydrochloride solution (TCEP) were purchased from Sigma-Aldrich (St. Louis, MO) at the highest level of purity possible. Bicine buffer solution was purchased from Alfa Aesar (Tewksbury, MA) and compound NSC-617145 was purchased from Tocris (Minneapolis, MN). DNA duplex was synthesized at BGI (Shenzhen, China) and was composed of strand 1 with the sequence 5′-[…]-3′ (SEQ ID NO.: 1) and strand 2 with the sequence 5′-[…]-3′ (SEQ ID NO.: 2). DNA strands were annealed by heating to 95° C. for 5 minutes followed by slow cooling to room temperature. Compounds in 100% DMSO (0.1 μl) were spotted into a 384-well white polystyrene Optiplate-384 (Perkin Elmer; Waltham, MA) assay plate using a LabCyte Echo 550 (Agilent; Santa Clara, CA). DMSO (0.1 μl) was added to columns 12, rows A-H and column 24, rows I-P for the maximum signal control. Compound NSC-617145 (0.1 μl) was added to columns 12, rows I-P and 24, rows A-H for the minimum signal control (100% inhibition). Compounds/DMSO were preincubated for 15 minutes at 25° C. with 5 μl 2×WRN (BV08), prepared as described below, in assay buffer containing 20 mM Bicine (pH=7.5), 1 mM MgCl2, 10 mM KCl, 0.1% Pluronic F-127, 0.005% BSG, 1 mM TCEP. The reaction was initiated by the addition of 5 μl 2× substrate mixture in assay buffer and incubated for 60 minutes at 25° C. The final concentrations of the assay components were 0.15 nM WRN, 5 μM ATP, and 0.1 nM DNA duplex. The final DMSO concentration was 1% and the reference compound concentration (NSC-617145) used for the minimal signal control was 20 μM. The reaction was stopped by the addition of the ADP-Glo Kit components (Promega; Madison, WI) as directed and the relative luminescence units (RLU) were read on an Envision 2104 (Perkin Elmer; Waltham, MA). % inhibition calculation:
Where RLU=relative luminescence units, sample=signal in sample well, and MIN and MAX are the respective minimum and maximum signal controls.
Four-Parameter IC50 Fit Equation:
Where top and bottom are normally allowed to float but may be fixed at 100 or 0 respectively in a 3-parameter fit. Y is the % inhibition and X is the compound concentration.
Molecular Biology and virus production. The DNA encoding human Werner helicase (Uniprot Q14191, amino acids 517-1235 with L1074F point mutation) was generated with codon-optimization for E. coli expression and subcloned into the pFastBac vector with a TEV cleavable 8×His tag (SEQ ID NO: 5) (WRN-BV08). The baculovirus from the expression plasmid WRN-BV08 was generated from transfection and amplification following the manufacturer's instructions.
Sf9 cells grown in SF900II media were infected with 1:200 WRN-BV08 P2 virus and incubated for protein expression for 72 h at 27° C. The WRN protein was purified using the following protocol. The cell pellets were thawed and resuspended in buffer A (50 mM Tris, pH 7.5, 500 mM NaCl, 1 mM TCEP, 10% Glycerol) supplemented with 0.5% CHAPS, 1 mM PMSF, […] Leupeptin, 1 μg/ml Pepstatin, and the Pierce Universal Nuclease and cocktail tablet. Cleared lysates were loaded onto a Ni Sepharose™ excel column and washed with buffer A and bound protein was eluted with buffer A supplemented with 300 mM imidazole. The eluted protein was dialyzed against buffer A and digested by His-tagged TEV (1:5 ratio) overnight at 4° C. ZnCl2 was added into the sample at final 15 μM before loading onto a second Ni Sepharose™ excel column. Untagged WRN protein was eluted from the column with buffer A supplemented with 20 mM imidazole, dialyzed overnight into buffer B (50 mM Tris, pH 7.5, 1 mM TCEP, 10% Glycerol) supplemented with 150 mM NaCl and loaded onto a Heparin column. Proteins were eluted with a step gradient of buffer B supplemented with 150 mM, 200 mM, 300 mM and 500 mM NaCl. […]

Row | SMILES | pEC50 [1] | pIC50 [2]
1 | COc1cc(-n2nc3c(=O)c(N4CCN(C(=O)c5ncnc(C)c5O)[C@H]5CC[C@@H]54)c4n(c3n2)[C@@H](C(=O)NC23CC(C5CC5)(C2)C3)C[C@@H]4C)ccn1 (single isomer, unassigned) [Compound I-1] | ≥ 6.30 | 7.30 to 8.30
2 | COc1cc(-n2nc3c(=O)c(N4CCN(C(=O)c5ncnc(C)c5O)[C@H]5CC[C@@H]54)c4n(c3n2)[C@@H](C(=O)NC23CC(C5CC5)(C2)C3)C[C@H]4C)ccn1 (single isomer, unassigned) [Compound I-2] | ≥ 6.30 | 7.30 to 8.30
3 | COc1cc(-n2nc3c(=O)c(N4CCN(C(=O)c5ncnc(C)c5O)[C@H]5CC[C@@H]54)c4n(c3n2)[C@H](C(=O)NC23CC(C5CC5)(C2)C3)C[C@H]4C)ccn1 (single isomer, unassigned) [Compound I-3] | 5.70 to 6.30 | 7.00 to 7.30
4 | COc1cc(-n2nc3c(=O)c(N4CCN(C(=O)c5ncnc(C)c5O)[C@H]5CC[C@@H]54)c4n(c3n2)[C@H](C(=O)NC23CC(C5CC5)(C2)C3)C[C@@H]4C)ccn1 (single isomer, unassigned) [Compound I-4] | < 5.30 | 6.30 to 7.00
5 | COc1cc(-n2nc3c(=O)c(N4CCN(C(=O)c5ncnc(C)c5O)[C@H]5CC[C@@H]54)c4n(c3n2)[C@@H](C(=O)Nc2ccc(C(F)(F)F)cc2Cl)C[C@H]4C)ccn1 (single isomer, unassigned) [Compound I-5] | ≥ 6.30 | ≥ 8.30
6 | COc1cc(-n2nc3c(=O)c(N4CCN(C(=O)c5ncnc(C)c5O)[C@H]5CC[C@@H]54)c4n(c3n2)[C@H](C(=O)Nc2ccc(C(F)(F)F)cc2F)C[C@@H]4C)ccn1 (single isomer, unassigned) [Compound I-6] | ≥ 6.30 | ≥ 8.30
7 | Cc1cnc2c(n1)c(=O)c(N1CCN(C(=O)c3ncnc(C)c3O)[C@H]3CC[C@@H]31)c1n2[C@H](C(=O)Nc2ccc(C(F)(F)F)cc2Cl)C[C@@H]1C (single isomer, unassigned) [Compound I-7] | ≥ 6.30 | ≥ 8.30
8 | Cc1cnc2c(n1)c(=O)c(N1CCN(C(=O)c3ncnc(C)c3O)[C@H]3CC[C@@H]31)c1n2[C@@H](C(=O)Nc2ccc(C(F)(F)F)cc2Cl)C[C@H]1C (single isomer, unassigned) [Compound I-8] | < 5.30 | 6.30 to 7.00
9 | COc1cc(-n2nc3c(=O)c(N4CCN(C(=O)c5ncnc(C)c5O)[C@H]5CC[C@@H]54)c4n(c3n2)[C@H](C(=O)Nc2ccc(C(F)(F)F)cc2Cl)C[C@@H]4C)ccn1 (single isomer, unassigned) [Compound I-9] | 5.70 to 6.30 | 6.30 to 7.00

The next lines start with the values.

Row | pEC50 [1] | pIC50 [2] | SMILES
10 | ≥ 6.30 | ≥ 8.30 | Cc1ncnc(C(=O)N2CCN(c3c4n(c5nn(C6CC6)nc5c3=O)[C@H](C(=O)Nc3ccc(C(F)(F)F)cc3Cl)C[C@H]4C)[C@H]3CC[C@@H]32)c1O (relative stereo) [Compound I-27, (6R*,8R**)-N-[2-chloro-4-(trifluoromethyl)phenyl]-2-cyclopropyl-5-[(1S,6S)-5-(5-hydroxy-6-methylpyrimidine-4-carbonyl)-2,5-diazabicyclo[4.2.0]octan-2-yl]-6-methyl-4-oxo-2H,4H,6H,7H,8H-[1,2,3]triazolo[4,5-e]indolizine-8-carboxamide]
11 | 5.70 to 6.30 | 7.30 to 8.30 | Cc1ncnc(C(=O)N2CCN(c3c4n(c5nn(C6CC6)nc5c3=O)[C@@H](C(=O)Nc3ccc(C(F)(F)F)cc3Cl)C[C@@H]4C)[C@H]3CC[C@@H]32)c1O (relative stereo) [Compound I-28, (6R*,8R**)-N-[2-chloro-4-(trifluoromethyl)phenyl]-2-cyclopropyl-5-[(1S,6S)-5-(5-hydroxy-6-methylpyrimidine-4-carbonyl)-2,5-diazabicyclo[4.2.0]octan-2-yl]-6-methyl-4-oxo-2H,4H,6H,7H,8H-[1,2,3]triazolo[4,5-e]indolizine-8-carboxamide]
12 | 5.30 to 5.70 | 6.30 to 7.00 | COc1cc(-n2nc3c(=O)c(N4CCN(C(=O)c5ncnc(C)c5O)[C@H]5CC[C@@H]54)c4n(c3n2)[C@@H](C(=O)Nc2ccc(C(F)(F)F)cc2F)C[C@H]4C)ccn1 (single isomer, unassigned) [Compound I-10]
13 |  | ≥ 8.30 | COc1cc(-n2nc3c(=O)c(N4CCN(C(=O)c5ncnc(C)c5O)[C@H]5CC[C@@H]54)c4n(c3n2)[C@H](C(=O)Nc2ccc(C(F)(F)F)cc2Cl)C[C@H]4C)ccn1 (single isomer, unassigned) [Compound I-13]
14 | ≥ 6.30 |  | Cc1nc2c(=O)c(N3CCN(C(=O)c4ncnc(C)c4O)[C@H]4CC[C@@H]43)c3n(c2nc1C)[C@@H](C(=O)Nc1ccc2c(c1Cl)OC(F)(F)O2)C[C@H]3C [Compound I-26, (7R,9R)—N-(4-chloro-2,2-difluoro-2H-1,3-benzodioxol-5-yl)-6-[(1S,6S)-5-(5-hydroxy-6-methylpyrimidine-4-carbonyl)-2,5-diazabicyclo[4.2.0]octan-2-yl]-2,3,7-trimethyl-5-oxo-5H,7H,8H,9H-pyrazino[2,3-e]indolizine-9-carboxamide]
